#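 Results reflect a 48-hour exposure of cells in 96-well plates to compound at five concentrations. GI50 is the concentration that inhibits growth by half. TGI: total growth inhibition.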
# Columns and labels:
# Assay in all cases: NCI-60 cell line screen, 48 h
# UO-31 renal = test system: UO-31 renal
# SF-539 CNS = test system: SF-539 CNS
# ACHN renal = test system: ACHN renal
# M14 melanoma = test system: M14 melanoma
# UACC-257 melanoma = test system: UACC-257 melanoma
# A498 renal = test system: A498 renal
# OVCAR-3 ovarian = test system: OVCAR-3 ovarian
# HOP-92 NSCLC = test system: HOP-92 NSCLC
# EKVX NSCLC = test system: EKVX NSCLC
# SNB-75 CNS = test system: SNB-75 CNS
# NCI-H460 lung = test system: NCI-H460 lung
# NCI-H23 lung = test system: NCI-H23 lung
# IGROV1 ovarian = test system: IGROV1 ovarian
# MDA-MB-435 = test system: MDA-MB-435
# SN12C renal = test system: SN12C renal
# SK-MEL-5 melanoma = test system: SK-MEL-5 melanoma
# A549 NSCLC = test system: A549 NSCLC
# UACC-62 melanoma = test system: UACC-62 melanoma
# 786-0 renal = test system: 786-0 renal
# PC-3 prostate = test system: PC-3 prostate
# NCI/ADR-RES ovarian = test system: NCI/ADR-RES ovarian
# OVCAR-5 ovarian = test system: OVCAR-5 ovarian
# HL-60(TB) leukemia = test system: HL-60(TB) leukemia
# HCT-15 colon = test system: HCT-15 colon
# CAKI-1 renal = test system: CAKI-1 renal
# RPMI-8226 leukemia = test system: RPMI-8226 leukemia
# OVCAR-4 ovarian = test system: OVCAR-4 ovarian
# NCI-H226 lung = test system: NCI-H226 lung
# TK-10 renal = test system: TK-10 renal
# DU-145 prostate = test system: DU-145 prostate
# SW-620 colon = test system: SW-620 colon
# HOP-62 NSCLC = test system: HOP-62 NSCLC
# HS 578T breast = test system: HS 578T breast
# HCT-116 colon = test system: HCT-116 colon
# BT-549 breast = test system: BT-549 breast
# SK-OV-3 ovarian = test system: SK-OV-3 ovarian
# RXF 393 renal = test system: RXF 393 renal
# SF-295 CNS = test system: SF-295 CNS
# MDA-MB-231 breast = test system: MDA-MB-231 breast
structure (smiles),measurement,setting,value
OC(CNc1ccnc2cc(Cl)ccc12)CNc1ccnc2cc(Cl)ccc12,GI50,UO-31 renal,17 µM
same,TGI,UO-31 renal,38 µM
same,GI50,SF-539 CNS,1.74 µM
same,TGI,SF-539 CNS,3.3 µM
same,GI50,ACHN renal,5.09 µM
same,TGI,ACHN renal,28.2 µM
same,GI50,M14 melanoma,1.73 µM
same,TGI,M14 melanoma,3.18 µM
same,GI50,UACC-257 melanoma,1.87 µM
same,TGI,UACC-257 melanoma,3.49 µM
same,GI50,A498 renal,11 µM
same,TGI,A498 renal,25.3 µM
same,GI50,OVCAR-3 ovarian,1.81 µM
same,TGI,OVCAR-3 ovarian,3.42 µM
same,GI50,HOP-92 NSCLC,4.22 µM
same,TGI,HOP-92 NSCLC,19.1 µM
same,GI50,EKVX NSCLC,2.22 µM
same,TGI,EKVX NSCLC,6.04 µM
same,GI50,SNB-75 CNS,1.5 µM
same,TGI,SNB-75 CNS,3.03 µM
same,GI50,NCI-H460 lung,1.83 µM
same,TGI,NCI-H460 lung,3.52 µM
same,GI50,NCI-H23 lung,2.79 µM
same,TGI,NCI-H23 lung,7.77 µM
same,GI50,IGROV1 ovarian,10.9 µM
same,TGI,IGROV1 ovarian,36.8 µM
same,GI50,MDA-MB-435,1.67 µM
same,TGI,MDA-MB-435,3.1 µM
same,GI50,SN12C renal,1.89 µM
same,TGI,SN12C renal,3.7 µM
same,GI50,SK-MEL-5 melanoma,1.58 µM
same,TGI,SK-MEL-5 melanoma,3.02 µM
same,GI50,A549 NSCLC,4.49 µM
same,TGI,A549 NSCLC,21.2 µM
same,GI50,UACC-62 melanoma,1.7 µM
same,TGI,UACC-62 melanoma,3.37 µM
same,GI50,786-0 renal,1.81 µM
same,TGI,786-0 renal,3.39 µM
same,GI50,PC-3 prostate,1.6 µM
same,TGI,PC-3 prostate,3.1 µM
same,GI50,NCI/ADR-RES ovarian,> 100 µM
same,TGI,NCI/ADR-RES ovarian,> 100 µM
same,GI50,OVCAR-5 ovarian,1.73 µM
same,TGI,OVCAR-5 ovarian,3.42 µM
same,GI50,HL-60(TB) leukemia,1.82 µM
same,TGI,HL-60(TB) leukemia,3.79 µM
same,GI50,HCT-15 colon,17.2 µM
same,TGI,HCT-15 colon,44.6 µM
same,GI50,CAKI-1 renal,31.1 µM
same,TGI,CAKI-1 renal,> 100 µM
same,GI50,RPMI-8226 leukemia,3 µM
same,TGI,RPMI-8226 leukemia,11.1 µM
same,GI50,OVCAR-4 ovarian,1.64 µM
same,TGI,OVCAR-4 ovarian,3.34 µM
same,GI50,NCI-H226 lung,2.98 µM
same,TGI,NCI-H226 lung,9.3 µM
same,GI50,TK-10 renal,2.13 µM
same,TGI,TK-10 renal,4.86 µM
same,GI50,DU-145 prostate,1.96 µM
same,TGI,DU-145 prostate,3.76 µM
same,GI50,SW-620 colon,1.66 µM
same,TGI,SW-620 colon,3.21 µM
same,GI50,HOP-62 NSCLC,3.17 µM
same,TGI,HOP-62 NSCLC,14.7 µM
same,GI50,HS 578T breast,1.97 µM
same,TGI,HS 578T breast,4.16 µM
same,GI50,HCT-116 colon,1.72 µM
same,TGI,HCT-116 colon,3.09 µM
same,GI50,BT-549 breast,1.67 µM
same,TGI,BT-549 breast,3.13 µM
same,GI50,SK-OV-3 ovarian,1.92 µM
same,TGI,SK-OV-3 ovarian,3.89 µM
same,GI50,RXF 393 renal,1.7 µM
same,TGI,RXF 393 renal,3.19 µM
same,GI50,SF-295 CNS,1.82 µM
same,TGI,SF-295 CNS,3.56 µM
same,GI50,MDA-MB-231 breast,1.73 µM
same,TGI,MDA-MB-231 breast,3.44 µM
